# Reference: patent US12612412B2, “Antiviral heterocyclic compounds” (Enanta Pharmaceuticals, Inc., priority 2021, dated 2026)
# Read-outs that look alike come from different tables or passages of the source.
# Experiments:
# [1] = test system: genotype A, "Long" strain RSV; assay: RSV-A assay (CPE protection in Hep-2 cells, ATPlite readout); assay type: cell-based, Human respiratory syncytial virus (HRSV); conditions: human respiratory syncytial virus, MOI 0.1, CPE protection
# Outline: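 Hep-2 cells (8,000/well) were treated with 2-fold serial compound dilutions in duplicate and infected with RSV at MOI 0.1. After 5 days, protection from cytopathic effect was measured as cell viability by ATPlite luminescence, and EC50 values were derived.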
# [2] = test system: HMPV clinical isolate TN/1501/A1; assay: HMPV antiviral assay Method-B (clinical isolate TN/1501/A1 in LLC-MK2 cells, ATP-Lite readout); assay type: cell-based, Human metapneumovirus (HMPV); conditions: human metapneumovirus, LLC-MK2, 144 h, hMPV WT1501 (clinical isolate TN/1501/A1), 6 days
# Outline: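 LLC-MK2 cells infected in suspension with TN/1501/A1 at MOI 0.014 in serum-free medium with 2 μg/mL TPCK-trypsin (final), incubated 6 days at 37° C. Compounds tested in duplicate, 10-point 3-fold dilutions from 10 μM. Cell health read by ATP-Lite luminescence, normalised to virus-only and cells-only controls; EC50 by four-parameter logistic fit.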
# [3] = RSV-A Long strain, read-out: Human RSV-A (“Long”) EC50
# [4] = genotype A “Long” strain RSV, read-out: Human RSV-A (“Long”)
SMILES,"EC50 [1, 3]",EC50 [2],"EC50 [1, 4]"
COc1cc(C(=O)NC[C@](O)(c2cc3c(c(-c4ccc(F)cc4)n2)OC[C@]3(C)C(N)=O)C(F)(F)F)cc2cc(C#N)cnc12 [Example 1134],< 200 nM,> 500 nM,–
COc1cc(C(=O)NC[C@](O)(c2cc3c(c(-c4c(F)cc(Cl)cc4F)n2)OC[C@]3(C)C(N)=O)C2CC2)cc2cn(C(F)F)nc12 [Example 1156],< 200 nM,< 500 nM,–
COc1cc(C(=O)NC[C@](O)(c2cc3c(c(-c4ccc(Cl)c(F)c4F)n2)OC[C@]3(C)C(N)=O)C2CC2)cc2cn(C(F)F)nc12 [Example 684],–,< 500 nM,< 200 nM
COc1cc(C(=O)NC[C@](O)(c2cc3c(c(-c4ccc5c(c4)CC(=O)N5)n2)OC[C@]3(C)C(N)=O)C(F)(F)F)cc2cn(C3CC3)nc12 [Example 971],> 200 nM,> 500 nM,–
Cc1cnc2c(OC(F)F)cc(C(=O)NC[C@](O)(c3cc4c(c(-c5cc(Br)c(F)cc5F)n3)OC[C@]4(C)C(N)=O)C3CC3)cc2c1 [Example 1106],< 200 nM,< 500 nM,–
COc1cc(C(=O)NC[C@](O)(c2cc3c(c(-c4csc5c(Cl)cccc45)n2)OC[C@]3(C)C(N)=O)C(F)(F)F)cc2cn(C3CC3)nc12 [Example 937],> 200 nM,> 500 nM,–
C[C@]1(C(N)=O)COc2c1cc([C@@](O)(CNC(=O)c1cc(OCC(F)F)c3nn(C4(F)CC4)cc3c1)C(F)(F)F)nc2-c1cc(Cl)c(F)cc1F [Example 617],–,< 500 nM,< 200 nM
COc1cc(C(=O)NC[C@](O)(c2cc3c(c(-c4ccc5c(c4)OC(F)(F)O5)n2)OC[C@]3(C)C(N)=O)C(F)(F)F)cc2cc(Cl)c(C)nc12 [Example 640],–,< 500 nM,< 200 nM
COc1cc(C(=O)NC[C@](O)(c2cc3c(c(-c4cc(F)c(F)cc4F)n2)OC[C@]3(C)C(N)=O)C2CC2)cc2cc(Br)c(C)nc12 [Example 1150],< 200 nM,< 500 nM,–
COc1cc(C(=O)NC[C@](O)(c2cc3c(c(-c4ccc5c(c4)CC5)n2)OC[C@]3(C)C(N)=O)C(F)(F)F)cc2cn(C3CC3)nc12 [Example 980],< 200 nM,< 500 nM,–
C[C@]1(C(N)=O)COc2c1cc([C@@](O)(CNC(=O)c1cc(Cl)c3nn(C4CC4)cc3c1)C(F)(F)F)nc2-c1ccc2c(c1)OC(F)(F)O2 [Example 546],–,< 500 nM,< 200 nM
CC[C@](O)(CNC(=O)c1cc(OC)c2nc(C)c(Cl)cc2c1)c1cc2c(c(-c3ccc(F)cc3)n1)OC[C@]2(C)C(N)=O [Example 643],–,< 500 nM,< 200 nM
COc1cc(C(=O)NC[C@](O)(c2cc3c(c(-c4ccc(F)cc4)n2)OC[C@]3(C(N)=O)C(F)F)C2CC2)cc2cn(C3CC3)nc12 [Example 1022],> 200 nM,> 500 nM,–
C[C@]1(C(N)=O)COc2c1cc([C@@](O)(CNC(=O)c1cc(OCC(F)F)c3nn(C4(F)CC4)cc3c1)C(F)(F)F)nc2-c1csc2c(F)cccc12 [Example 611],–,< 500 nM,< 200 nM
COc1cc(C(=O)NC[C@](O)(c2cc3c(c(-c4ccc(F)c(Cl)c4F)n2)OC[C@]3(C)C(N)=O)C2CC2)cc2cc(C(F)(F)F)cnc12 [Example 572],–,< 500 nM,< 200 nM
Cc1nc2c(Cl)cc(C(=O)NC[C@](O)(c3cc4c(c(-c5ccc(F)c(Cl)c5)n3)OC[C@]4(C)C(N)=O)C(F)(F)F)cc2cc1Cl [Example 884],< 200 nM,> 500 nM,–
COc1cc(C(=O)NC[C@](O)(c2cc3c(c(-c4cc(F)c(F)cc4F)n2)OC[C@]3(C)C(N)=O)C2CC2)cc2cn(C3CC3)nc12 [Example 1145],< 200 nM,< 500 nM,–
COc1cc(C(=O)NC[C@](O)(c2cc3c(c(-c4ccc(F)c(Cl)c4)n2)OC[C@]3(CF)C(N)=O)C(F)(F)F)cc2cn(C3CC3)nc12 [Example 1052],< 200 nM,< 500 nM,–
COc1cc(C(=O)NC[C@](O)(c2cc3c(c(-c4cc(Cl)ccc4F)n2)OC[C@]3(C)C(N)=O)C2CC2)cc2cn(C3(Cl)CC3)nc12 [Example 842],< 200 nM,< 500 nM,–
C[C@]1(C(N)=O)COc2c1cc([C@@](O)(CNC(=O)c1cc(Cl)c3nn(C4CC4)cc3c1)C1CC1)nc2-c1cccc(F)c1Cl [Example 1123],< 200 nM,< 500 nM,–
COc1cc(C(=O)NC[C@](O)(c2cc3c(c(-c4cccc(-c5ccccc5)c4)n2)OC[C@]3(C)C(N)=O)C(F)(F)F)cc2cn(C3CC3)nc12 [Example 1251],> 200 nM,> 500 nM,–
COc1cc(C(=O)NC[C@](O)(c2cc3c(c(-c4ccc(F)cc4)n2)OC[C@@]3(CF)C(N)=O)C2CC2)cc2cc(Cl)c(C)nc12 [Example 1055],> 200 nM,> 500 nM,–
COc1cc(C(=O)NC[C@](O)(c2cc3c(c(-c4ccc(F)cc4)n2)OC[C@]3(C)C(N)=O)C2(F)CC2)cc2cn(C3(F)CC3)nc12 [Example 756],–,< 500 nM,< 200 nM

SMILES,"EC50 [1, 3]",EC50 [2],"EC50 [1, 4]"
COc1cc(C(=O)NC[C@](O)(c2cc3c(c(-c4ccc(F)c(Cl)c4)n2)OC[C@]3(C)C(N)=O)C2(F)CC2)cc2cc(Cl)c(C)nc12 [Example 719],–,< 500 nM,< 200 nM
COc1cc(C(=O)NC[C@@](O)(c2cc3c(c(-c4cc5c(cc4Cl)OC(F)(F)O5)n2)OC[C@]3(C)C(N)=O)C2CC2)cc2cn(C3CC3)nc12 [Example 1230],> 200 nM,> 500 nM,–
Cc1cnc2c(OC(F)F)cc(C(=O)NC[C@](O)(c3cc4c(c(-c5cc(Cl)ccc5F)n3)OC[C@]4(C)C(N)=O)C3(F)CC3)cc2c1 [Example 736],–,< 500 nM,< 200 nM
Cc1cnc2c(OC(F)F)cc(C(=O)NC[C@](O)(c3cc4c(c(-c5ccc(F)cc5Cl)n3)OC[C@]4(C)C(N)=O)C(F)(F)F)cc2c1 [Example 524],–,< 500 nM,< 200 nM
COc1cc(C(=O)NC[C@](O)(c2cc3c(c(-c4csc5c(F)cccc45)n2)OC[C@]3(C)C(N)=O)C2CC2)cc2cc(Cl)c(C)nc12 [Example 595],–,< 500 nM,< 200 nM
COc1cc(C(=O)NC[C@](O)(c2cc3c(c(-c4ccc(Cl)c(F)c4F)n2)OC[C@]3(C)C(N)=O)C2CC2)cc2cn(C3(F)CC3)nc12 [Example 685],–,< 500 nM,< 200 nM
COc1cc(C(=O)NC[C@](O)(c2cc3c(c(-c4ccc(F)c(Cl)c4)n2)OC[C@]3(C(N)=O)C(F)F)C(F)(F)F)cc2cc(Cl)c(C)nc12 [Example 1004],> 200 nM,> 500 nM,–
COc1ccc(-c2nc([C@](O)(CNC(=O)c3cc(OC)c4nn(C5CC5)cc4c3)C(F)(F)F)cc3c2OC[C@]3(C)C(N)=O)cc1 [Example 923],> 200 nM,> 500 nM,–
COc1cc(C(=O)NC[C@](O)(c2cc3c(c(-c4ccc(F)c(Cl)c4)n2)OC[C@@]3(CF)C(N)=O)C(F)(F)F)cc2cc(Cl)c(C)nc12 [Example 1046],> 200 nM,> 500 nM,–
COc1cc(C(=O)NC[C@@](O)(c2cc3c(c(-c4ccc5c(c4)OC(F)(F)C(F)(F)O5)n2)OC[C@]3(C)C(N)=O)C(F)(F)F)cc2cn(C3CC3)nc12 [Example 954],< 200 nM,> 500 nM,–
COc1cc(C(=O)NC[C@](O)(c2cc3c(c(-c4ccc(F)c(Cl)c4F)n2)OC[C@]3(C)C(N)=O)C2CC2)cc2cc(Br)cnc12 [Example 561],–,< 500 nM,< 200 nM
Cc1cnc2c(OC(F)F)cc(C(=O)NC[C@](O)(c3cc4c(c(-c5ccc6c(c5)OC(F)(F)O6)n3)OC[C@@]4(C(N)=O)C(F)F)C(F)(F)F)cc2c1 [Example 1043],< 200 nM,< 500 nM,–
COc1cc(C(=O)NC[C@](O)(c2cc3c(c(-c4ccc(F)cc4)n2)OC[C@]3(CF)C(N)=O)C2CC2)cc2cn(C3CC3)nc12 [Example 1064],< 200 nM,< 500 nM,–
COc1cc(C(=O)NC[C@](O)(c2cc3c(c(-c4csc5c(F)cccc45)n2)OC[C@]3(C)C(N)=O)C(F)(F)F)cc2cc(Br)cnc12 [Example 602],–,< 500 nM,< 200 nM
COc1cc(C(=O)NC[C@](O)(c2cc3c(c(-c4ccc(F)cc4)n2)OC[C@]3(C)C(N)=O)C2CC2)cc2sc(C)nc12 [Example 728],–,< 500 nM,< 200 nM
COc1cc(C(=O)NC[C@](O)(c2cc3c(c(-c4ccc(F)c(Cl)c4F)n2)OC[C@]3(C)C(N)=O)C2CC2)cc2cn(C(F)F)nc12 [Example 556],–,< 500 nM,< 200 nM
COc1cc(C(=O)NC[C@](O)(c2cc3c(c(-c4cccc(Br)c4F)n2)OC[C@]3(C)C(N)=O)C2CC2)cc2cn(C3(F)CC3)nc12 [Example 1087],< 200 nM,< 500 nM,–
Cc1nc2c(Cl)cc(C(=O)NC[C@](O)(c3cc4c(c(-c5ccc(F)c(F)c5Cl)n3)OC[C@]4(C)C(N)=O)C3CC3)cc2cc1Cl [Example 1186],< 200 nM,< 500 nM,–
COc1cc(C(=O)NC[C@](O)(c2cc3c(c(-c4ccc(F)cc4)n2)OC[C@@]3(C(N)=O)C2CC2)C(F)(F)F)cc2cc(C3CC3)nn12 [Example 1065],< 200 nM,< 500 nM,–
COc1cc(C(=O)NC[C@](O)(c2cc3c(c(-c4ccc(Cl)c(F)c4F)n2)OC[C@]3(C)C(N)=O)C2CC2)cc2cc(Cl)c(C)nc12 [Example 687],–,< 500 nM,< 200 nM
COc1cc(C(=O)NC[C@](O)(c2cc3c(c(-c4ccc(C(F)F)s4)n2)OC[C@]3(C)C(N)=O)C(F)(F)F)cc2cn(C3CC3)nc12 [Example 948],< 200 nM,> 500 nM,–
COc1cc(-c2nc([C@@](O)(CNC(=O)c3cc(OC)c4nn(C5CC5)cc4c3)C(F)(F)F)cc3c2OC[C@]3(C)C(N)=O)cc2cn(C(F)F)nc12 [Example 942],> 200 nM,> 500 nM,–
